# Results as given in ChEMBL document CHEMBL1135518 (J Med Chem, 2002).
# Experiments:
# [1] = molecular target: 5-hydroxytryptamine receptor 2A (Rattus norvegicus, UniProt P14842); assay: The binding affinity at 5-hydroxytryptamine 2A receptor was determined using [3H]ketanserin
# [2] = molecular target: T1, Adrenergic receptor alpha-2 (Rattus norvegicus, UniProt P22086+P19328+P22909); assay: The binding affinity at the Alpha-2 adrenergic receptor determined using [3H]RX-821002; Not tested; format: protein assay
# T1 sequence (P22086 whole entry): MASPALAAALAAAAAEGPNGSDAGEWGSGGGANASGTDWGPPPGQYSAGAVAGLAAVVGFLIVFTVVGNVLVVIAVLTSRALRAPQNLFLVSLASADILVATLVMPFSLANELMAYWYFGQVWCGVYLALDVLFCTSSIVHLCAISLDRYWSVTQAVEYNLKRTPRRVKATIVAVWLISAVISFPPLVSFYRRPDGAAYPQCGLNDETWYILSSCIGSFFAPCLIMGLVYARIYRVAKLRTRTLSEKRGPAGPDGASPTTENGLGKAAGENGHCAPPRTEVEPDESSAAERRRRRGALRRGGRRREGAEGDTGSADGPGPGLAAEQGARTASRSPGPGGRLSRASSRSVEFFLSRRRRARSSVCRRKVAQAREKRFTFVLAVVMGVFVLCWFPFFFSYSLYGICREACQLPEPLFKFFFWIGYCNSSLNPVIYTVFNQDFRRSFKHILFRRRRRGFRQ
# T1 sequence (P19328 whole entry): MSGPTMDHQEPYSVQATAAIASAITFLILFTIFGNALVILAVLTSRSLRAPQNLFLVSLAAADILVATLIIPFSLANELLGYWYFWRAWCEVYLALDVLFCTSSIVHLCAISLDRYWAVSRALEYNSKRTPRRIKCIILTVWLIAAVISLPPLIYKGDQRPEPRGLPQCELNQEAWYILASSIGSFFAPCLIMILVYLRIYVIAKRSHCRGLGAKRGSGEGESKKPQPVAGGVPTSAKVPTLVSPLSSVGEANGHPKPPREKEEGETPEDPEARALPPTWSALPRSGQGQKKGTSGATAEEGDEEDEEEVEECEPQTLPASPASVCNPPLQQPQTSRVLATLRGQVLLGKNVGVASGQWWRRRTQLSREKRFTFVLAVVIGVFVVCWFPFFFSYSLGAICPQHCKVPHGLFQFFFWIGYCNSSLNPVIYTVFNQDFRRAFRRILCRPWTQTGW
# T1 sequence (P22909 whole entry): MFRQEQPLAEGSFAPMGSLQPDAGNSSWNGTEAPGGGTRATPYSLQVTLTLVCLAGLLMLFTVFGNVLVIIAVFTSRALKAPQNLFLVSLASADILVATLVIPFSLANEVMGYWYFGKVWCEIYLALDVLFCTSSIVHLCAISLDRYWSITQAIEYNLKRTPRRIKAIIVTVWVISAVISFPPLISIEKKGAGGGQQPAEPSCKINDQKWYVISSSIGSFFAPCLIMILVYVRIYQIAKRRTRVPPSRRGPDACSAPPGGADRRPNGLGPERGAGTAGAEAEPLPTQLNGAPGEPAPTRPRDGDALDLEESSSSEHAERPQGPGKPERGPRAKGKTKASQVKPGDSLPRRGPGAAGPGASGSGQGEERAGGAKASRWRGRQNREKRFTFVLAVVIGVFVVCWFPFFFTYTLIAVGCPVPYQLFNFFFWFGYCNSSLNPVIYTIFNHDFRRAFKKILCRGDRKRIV
# [3] = molecular target: T2, Adrenergic receptor alpha-1 (Rattus norvegicus, UniProt P15823+P23944+P43140); assay: The binding affinity at Alpha-1 adrenergic receptor determined using [3H]prazosin; format: protein assay
# T2 sequence (P15823 whole entry): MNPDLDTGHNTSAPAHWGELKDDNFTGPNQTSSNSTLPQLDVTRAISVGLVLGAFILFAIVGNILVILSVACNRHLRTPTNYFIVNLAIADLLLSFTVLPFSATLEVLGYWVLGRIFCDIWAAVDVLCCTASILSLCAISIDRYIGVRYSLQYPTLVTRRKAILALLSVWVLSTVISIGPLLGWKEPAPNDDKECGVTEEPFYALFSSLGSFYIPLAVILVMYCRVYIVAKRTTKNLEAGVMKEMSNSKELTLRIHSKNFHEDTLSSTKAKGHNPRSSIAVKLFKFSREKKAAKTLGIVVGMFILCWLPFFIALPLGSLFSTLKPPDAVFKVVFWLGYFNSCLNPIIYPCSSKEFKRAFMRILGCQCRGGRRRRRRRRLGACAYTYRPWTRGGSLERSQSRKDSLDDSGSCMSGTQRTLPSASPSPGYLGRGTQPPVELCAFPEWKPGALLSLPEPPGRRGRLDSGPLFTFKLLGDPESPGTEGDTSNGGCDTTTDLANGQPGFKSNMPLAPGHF
# T2 sequence (P23944 whole entry): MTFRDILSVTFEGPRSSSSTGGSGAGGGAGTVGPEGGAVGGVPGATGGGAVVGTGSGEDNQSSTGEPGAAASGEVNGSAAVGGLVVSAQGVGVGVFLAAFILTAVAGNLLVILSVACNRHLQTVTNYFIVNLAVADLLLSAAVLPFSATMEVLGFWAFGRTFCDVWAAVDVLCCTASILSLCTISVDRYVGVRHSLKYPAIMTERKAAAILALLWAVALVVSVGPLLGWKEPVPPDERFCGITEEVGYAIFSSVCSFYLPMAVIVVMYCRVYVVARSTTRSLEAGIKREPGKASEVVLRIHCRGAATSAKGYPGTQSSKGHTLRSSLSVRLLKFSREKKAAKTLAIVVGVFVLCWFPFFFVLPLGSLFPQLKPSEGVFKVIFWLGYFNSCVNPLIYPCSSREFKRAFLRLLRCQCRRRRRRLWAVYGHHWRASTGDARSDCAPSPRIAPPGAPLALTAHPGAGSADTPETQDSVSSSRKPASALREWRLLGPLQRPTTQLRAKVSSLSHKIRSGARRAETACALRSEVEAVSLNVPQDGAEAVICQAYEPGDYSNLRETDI
# T2 sequence (P43140 whole entry): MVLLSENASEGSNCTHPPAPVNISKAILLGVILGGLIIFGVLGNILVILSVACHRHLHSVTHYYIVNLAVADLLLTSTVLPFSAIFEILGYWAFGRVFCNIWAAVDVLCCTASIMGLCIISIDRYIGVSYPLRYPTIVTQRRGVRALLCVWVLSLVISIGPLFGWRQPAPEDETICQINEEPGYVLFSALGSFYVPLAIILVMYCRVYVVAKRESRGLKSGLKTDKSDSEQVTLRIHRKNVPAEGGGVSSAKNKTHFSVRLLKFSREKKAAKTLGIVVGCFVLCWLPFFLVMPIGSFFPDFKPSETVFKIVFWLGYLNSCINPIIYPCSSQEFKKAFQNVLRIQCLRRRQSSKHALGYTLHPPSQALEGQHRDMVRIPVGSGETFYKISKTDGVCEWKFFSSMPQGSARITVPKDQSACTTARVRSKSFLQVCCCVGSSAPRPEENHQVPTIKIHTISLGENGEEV
# [4] = molecular target: T3, 5-hydroxytryptamine receptor 2C (Rattus norvegicus, UniProt P08909); assay: The binding affinity at 5-hydroxytryptamine 2C receptor was determined using [3H]mesulergine
# T3 sequence (P08909 whole entry): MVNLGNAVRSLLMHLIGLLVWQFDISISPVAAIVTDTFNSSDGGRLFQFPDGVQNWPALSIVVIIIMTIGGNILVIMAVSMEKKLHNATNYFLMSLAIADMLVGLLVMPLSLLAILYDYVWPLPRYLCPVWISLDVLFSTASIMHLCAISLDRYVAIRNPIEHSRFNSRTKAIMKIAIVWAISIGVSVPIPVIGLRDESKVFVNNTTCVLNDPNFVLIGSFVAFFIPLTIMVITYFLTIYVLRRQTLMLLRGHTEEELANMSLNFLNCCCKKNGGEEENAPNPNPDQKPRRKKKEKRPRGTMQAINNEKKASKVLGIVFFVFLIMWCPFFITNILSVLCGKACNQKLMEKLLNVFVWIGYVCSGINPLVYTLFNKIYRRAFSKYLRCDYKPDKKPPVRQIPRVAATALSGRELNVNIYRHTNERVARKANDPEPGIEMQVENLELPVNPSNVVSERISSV
# [5] = The binding affinity at the Histamine H1 receptor determined using [3H]pyrilamine; set-up: species or system Cavia porcellus
# [6] = molecular target: Norepinephrine transporter (Rattus norvegicus, UniProt Q9WTR4); assay: The binding affinity at the Norepinephrine transporter reuptake sites determined using competition binding assay
# Rattus norvegicus [7] = assay: The increase in the extracellular levels of DOPAC in the rat ventral hippocampus at a dose of 5.0 mg/kg sc measured by in vivo microdialysis; format: functional; conditions: route subcutaneous
# D(4) dopamine receptor = molecular target: T4, D(4) dopamine receptor (Homo sapiens, UniProt P21917); assay: The binding affinity at the Dopamine receptor D4 determined using [3H]YM-09151-2
# T4 sequence (P21917 whole entry): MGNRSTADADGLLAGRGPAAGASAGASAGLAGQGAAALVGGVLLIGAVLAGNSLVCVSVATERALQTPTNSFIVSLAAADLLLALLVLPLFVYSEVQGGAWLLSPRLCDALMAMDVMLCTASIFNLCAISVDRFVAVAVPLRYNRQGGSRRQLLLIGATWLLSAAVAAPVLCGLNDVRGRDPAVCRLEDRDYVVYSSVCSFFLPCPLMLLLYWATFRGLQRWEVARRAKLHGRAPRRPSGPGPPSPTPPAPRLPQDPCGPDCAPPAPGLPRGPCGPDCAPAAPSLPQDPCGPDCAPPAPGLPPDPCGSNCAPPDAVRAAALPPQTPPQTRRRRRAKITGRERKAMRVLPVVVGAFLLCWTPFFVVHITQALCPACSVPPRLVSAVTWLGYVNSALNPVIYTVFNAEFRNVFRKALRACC
# [8] = molecular target: Sodium-dependent serotonin transporter (Rattus norvegicus, UniProt P31652); assay: The binding affinity at the 5-HT reuptake sites determined using competition binding assay
# Rattus norvegicus [9] = assay: The increase in the extracellular levels of 5-HT in the rat ventral hippocampus at a dose of 5.0 mg/kg sc measured by in vivo microdialysis; format: functional; conditions: route subcutaneous
# Norepinephrine transporter, sequence (Q9WTR4 whole entry): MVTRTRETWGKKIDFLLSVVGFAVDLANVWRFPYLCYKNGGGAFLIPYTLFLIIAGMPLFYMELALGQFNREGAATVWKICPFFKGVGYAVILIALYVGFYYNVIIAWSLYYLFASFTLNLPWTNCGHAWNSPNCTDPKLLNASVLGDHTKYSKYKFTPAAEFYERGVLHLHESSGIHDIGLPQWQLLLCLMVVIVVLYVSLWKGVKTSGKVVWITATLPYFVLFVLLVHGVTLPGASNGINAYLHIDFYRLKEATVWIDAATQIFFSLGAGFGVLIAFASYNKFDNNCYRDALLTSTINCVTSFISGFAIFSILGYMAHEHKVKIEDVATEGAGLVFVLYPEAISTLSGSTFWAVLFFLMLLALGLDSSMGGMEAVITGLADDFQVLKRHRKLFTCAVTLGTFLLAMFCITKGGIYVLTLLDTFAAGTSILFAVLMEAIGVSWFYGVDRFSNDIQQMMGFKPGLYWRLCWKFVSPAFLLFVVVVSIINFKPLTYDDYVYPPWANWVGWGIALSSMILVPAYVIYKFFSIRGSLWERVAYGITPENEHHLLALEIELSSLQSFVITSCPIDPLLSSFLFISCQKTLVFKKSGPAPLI
# 5-hydroxytryptamine receptor 2A, sequence (P14842 whole entry): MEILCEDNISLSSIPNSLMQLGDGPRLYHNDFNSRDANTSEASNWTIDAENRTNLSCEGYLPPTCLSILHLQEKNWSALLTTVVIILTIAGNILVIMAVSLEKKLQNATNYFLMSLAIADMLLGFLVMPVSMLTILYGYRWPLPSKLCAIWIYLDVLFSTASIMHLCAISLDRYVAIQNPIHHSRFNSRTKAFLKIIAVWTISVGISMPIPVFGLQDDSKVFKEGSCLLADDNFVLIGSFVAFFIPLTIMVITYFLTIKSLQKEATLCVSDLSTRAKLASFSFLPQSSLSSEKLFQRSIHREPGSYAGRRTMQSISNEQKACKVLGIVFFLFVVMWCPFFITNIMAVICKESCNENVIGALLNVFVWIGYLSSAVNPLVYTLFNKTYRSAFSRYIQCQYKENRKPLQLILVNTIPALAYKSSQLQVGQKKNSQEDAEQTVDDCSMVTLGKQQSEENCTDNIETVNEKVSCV
# Sodium-dependent serotonin transporter, sequence (P31652 whole entry): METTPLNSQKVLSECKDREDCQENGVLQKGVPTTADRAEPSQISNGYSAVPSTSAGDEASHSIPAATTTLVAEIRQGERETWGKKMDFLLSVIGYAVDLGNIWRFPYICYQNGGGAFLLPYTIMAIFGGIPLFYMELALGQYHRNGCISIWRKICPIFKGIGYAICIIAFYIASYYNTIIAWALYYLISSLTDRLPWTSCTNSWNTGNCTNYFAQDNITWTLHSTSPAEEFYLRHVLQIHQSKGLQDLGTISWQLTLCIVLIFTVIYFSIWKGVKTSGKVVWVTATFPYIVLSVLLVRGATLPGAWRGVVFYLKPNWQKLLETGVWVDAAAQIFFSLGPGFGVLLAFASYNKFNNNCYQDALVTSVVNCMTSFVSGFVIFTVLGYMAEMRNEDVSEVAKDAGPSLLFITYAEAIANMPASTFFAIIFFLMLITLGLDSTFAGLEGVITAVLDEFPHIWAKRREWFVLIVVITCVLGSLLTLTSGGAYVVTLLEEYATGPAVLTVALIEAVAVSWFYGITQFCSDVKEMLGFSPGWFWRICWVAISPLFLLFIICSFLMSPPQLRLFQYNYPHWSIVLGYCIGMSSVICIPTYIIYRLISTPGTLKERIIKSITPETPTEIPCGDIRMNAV
structure (smiles),measurement,setting,value
CN1CCN2c3c(cccc3OS(=O)(=O)C(F)(F)F)Cc3ccccc3C2C1 (racemic),IC50,[1],277 nM
same,IC50,[2],1000 nM
CN1CCN2c3c(O)cccc3Cc3ccccc3C2C1 (racemic),Ki,[3],1000 nM
same,Ki,[4],2 nM
same,IC50,[1],12 nM
same,Ki,[5],21 nM
same,IC50,[2],1000 nM
CN1CCN2c3ccccc3Cc3ccccc3C2C1 (racemic) [MIANSERIN],IC50,[6],22 nM
same,Increase,Rattus norvegicus [7],160%
same,Ki,[5],4.2 nM
CN1CCN2c3ncccc3Cc3ccccc3C2C1 (racemic) [MIRTAZAPINE],Ki,D(4) dopamine receptor,> 25 nM
same,IC50,[6],260 nM
same,Ki,[3],1050 nM
same,Increase,Rattus norvegicus [7],200%
same,Ki,[4],5.5 nM
same,IC50,[8],> 100 nM
same,Increase,Rattus norvegicus [9],180%
same,Ki,[5],5.1 nM
